Test results: PMC10778198, “First-in-Human Dose-Escalation Study of the Novel Oral Depsipeptide Class I-Targeting HDAC Inhibitor Bocodepsin (OKI-179) in Patients with Advanced Solid Tumors” (Cancers, 2023)

Test system: patients with advanced solid tumors
Assay: phase I dose escalation: safety, DLT, MTD, RP2D (CTCAE v. 5)
Format: in vivo
Description: Subsequent dosing cohorts were enrolled using a standard 3 + 3 design.
If any patient in any cohort of three patients developed a DLT during cycle 1, an additional three patients were recruited to expand the cohort to up to six evaluable patients. If two or more patients in any expanded cohort developed a DLT, this dose was considered non-tolerated, and dose escalation was discontinued. The MTD was defined as the highest dose level for which no more than one of six patients experienced a DLT.
Patients were continuously evaluated for adverse events throughout the study using the Common Terminology Criteria of Adverse Events (CTCAE v. 5). The patients underwent a clinical history and physical examination, an ECOG PS, a complete blood count (CBCs), chemistry, coagulation studies, urinalysis, a serum pregnancy test (as applicable), a triplicate ECG, an ophthalmology examination, and baseline tumor assessment at screening. During cycle 1, weekly history and physical examination, CBC, chemistry, coagulation parameters, urinalysis, and triplicate ECGs were performed; in subsequent cycles, weekly labs were limited to a CBC. Repeat ophthalmology examinations were performed at cycle 3, day 1, and at the end of treatment. Repeat tumor assessment was performed every 2 cycles (6 weeks) in accordance with RECIST 1.1.

[1] = All 4:3 Patients (n = 20), All Grades
[2] = All Continuous Patients (N=8), All grades
[3] = All Continuous Patients (N=8), G1
[4] = All Continuous Patients (N=8), G2
[5] = All Continuous Patients (N=8), G3

CC(C)[C@H](N)C(=O)SCC/C=C/[C@@H]1CC(=O)NCc2nc(cs2)C(=O)NC(C)(C)C(=O)N[C@@H](C(C)C)C(=O)O1 [OKI-179, Bocodepsin]
3 (38) N (%): TEAE: Diarrhea [2] | TEAE: Headache [2] | TEAE: Constipation [3] | TEAE: Diarrhea [3] | TEAE: Headache [3] | TEAE: Constipation [4]
2 (25) N (%): TEAE: Abdominal pain [2] | TEAE: Anemia [2] | TEAE: Decreased appetite [2] | TEAE: Dyspepsia [2] | TEAE: ECG QT prolonged [2] | TEAE: Pain [2] | TEAE: Anemia [4] | TEAE: Fatigue [4] | TEAE: Nausea [4]
83%: TEAE: Nausea (5:2 cohort, 300 mg)
8 (40) n (%): TEAE: Anemia [1] | TEAE: Fatigue [1]
9 (45) n (%): TEAE: Nausea (All 4:3 Patients (n = 20), G1)
1 (5) n (%): TEAE: Anemia (All 4:3 Patients (n = 20), G1) | TEAE: ECG QT prolonged (All 4:3 Patients (n = 20), G1) | TEAE: Hypokalaemia (All 4:3 Patients (n = 20), G1) | TEAE: Muscular weakness (All 4:3 Patients (n = 20), G1) | TEAE: Cough (All 4:3 Patients (n = 20), G2) | TEAE: Vomiting (All 4:3 Patients (n = 20), G2) | TEAE: Weight decreased (All 4:3 Patients (n = 20), G2) | TEAE: Back pain (All 4:3 Patients (n = 20), G3) | TEAE: Muscular weakness (All 4:3 Patients (n = 20), G3) | TEAE: Pyrexia (All 4:3 Patients (n = 20), G3)
1 (17) N (%): TEAE: Pneumonitis (5:2, 300 mg (N=6), G2) | TEAE: Vomiting (5:2, 300 mg (N=6), G2) | TEAE: Anemia (5:2, 300 mg (N=6), G3) | TEAE: Back pain (5:2, 300 mg (N=6), G3) | TEAE: Bile duct stenosis (5:2, 300 mg (N=6), G3) | TEAE: Decreased appetite (5:2, 300 mg (N=6), G3) | TEAE: Enterococcal bacteremia (5:2, 300 mg (N=6), G3) | TEAE: Nausea (5:2, 300 mg (N=6), G3) | TEAE: Pneumothorax (5:2, 300 mg (N=6), G3)
1 (13) N (%): TEAE: Abdominal pain [3] | TEAE: Decreased appetite [3] | TEAE: Dyspepsia [3] | TEAE: ECG QT prolonged [3] | TEAE: Fatigue [3] | TEAE: Pain [3] | TEAE: Platelet count decreased [3] | TEAE: Abdominal pain [4] | TEAE: Dyspepsia [4] | TEAE: ECG QT prolonged [4] | TEAE: Pain [4] | TEAE: Platelet count decreased [4] | TEAE: Decreased appetite [5] | TEAE: Fatigue [5]
3 (15) n (%): TEAE: Dyspnea [1] | TEAE: Headache [1] | TEAE: Hypokalaemia [1] | TEAE: Nasal congestion [1] | TEAE: Proteinuria [1] | TEAE: Weight decreased [1] | TEAE: Back pain (All 4:3 Patients (n = 20), G1) | TEAE: Cough (All 4:3 Patients (n = 20), G1) | TEAE: Dyspnea (All 4:3 Patients (n = 20), G1) | TEAE: Fatigue (All 4:3 Patients (n = 20), G1) | TEAE: Headache (All 4:3 Patients (n = 20), G1) | TEAE: Nasal congestion (All 4:3 Patients (n = 20), G1) | TEAE: Pyrexia (All 4:3 Patients (n = 20), G1) | TEAE: Decreased appetite (All 4:3 Patients (n = 20), G2) | TEAE: Proteinuria (All 4:3 Patients (n = 20), G2) | TEAE: ECG QT prolonged (All 4:3 Patients (n = 20), G3) | TEAE: Fatigue (All 4:3 Patients (n = 20), G3)
0 N (%): TEAE: Platelet count decreased (5:2, 300 mg (N=6), G2) | TEAE: Pneumothorax (5:2, 300 mg (N=6), G2) | TEAE: Abdominal pain (5:2, 300 mg (N=6), G3) | TEAE: Aspartate aminotransferase increased (5:2, 300 mg (N=6), G3) | TEAE: Blood alkaline phosphatase increased (5:2, 300 mg (N=6), G3) | TEAE: Dehydration (5:2, 300 mg (N=6), G3) | TEAE: Dysphagia (5:2, 300 mg (N=6), G3) | TEAE: ECG QT prolonged (5:2, 300 mg (N=6), G3) | TEAE: Esophagitis (5:2, 300 mg (N=6), G3) | TEAE: Esophagoscopy (5:2, 300 mg (N=6), G3) | TEAE: Eye pain (5:2, 300 mg (N=6), G3) | TEAE: Fatigue (5:2, 300 mg (N=6), G3) | TEAE: Gastritis (5:2, 300 mg (N=6), G3) | TEAE: Hypomagnesaemia (5:2, 300 mg (N=6), G3) | TEAE: Myalgia (5:2, 300 mg (N=6), G3) | TEAE: Neutrophil count decreased (5:2, 300 mg (N=6), G3) | TEAE: Oropharyngeal pain (5:2, 300 mg (N=6), G3) | TEAE: Pain in extremity (5:2, 300 mg (N=6), G3) | TEAE: Paresthesia (5:2, 300 mg (N=6), G3) | TEAE: Platelet count decreased (5:2, 300 mg (N=6), G3) | TEAE: Pneumonitis (5:2, 300 mg (N=6), G3) | TEAE: Vomiting (5:2, 300 mg (N=6), G3) | TEAE: Anemia [3] | TEAE: Decreased appetite [4] | TEAE: Diarrhea [4] | TEAE: Headache [4] | TEAE: Abdominal pain [5] | TEAE: Anemia [5] | TEAE: Constipation [5] | TEAE: Diarrhea [5] | TEAE: Dyspepsia [5] | TEAE: ECG QT prolonged [5]
4 (20) n (%): TEAE: Back pain [1] | TEAE: Cough [1] | TEAE: ECG QT prolonged [1] | TEAE: Muscular weakness [1] | TEAE: Pyrexia [1] | TEAE: Decreased appetite (All 4:3 Patients (n = 20), G1) | TEAE: Platelet count decreased (All 4:3 Patients (n = 20), G1) | TEAE: Nausea (All 4:3 Patients (n = 20), G2)
4 (50) N (%): TEAE: Fatigue [2] | TEAE: Platelet count decreased [2] | TEAE: Nausea [3]
5 (25) n (%): TEAE: Diarrhea [1] | TEAE: Diarrhea (All 4:3 Patients (n = 20), G1) | TEAE: Vomiting (All 4:3 Patients (n = 20), G1) | TEAE: Anemia (All 4:3 Patients (n = 20), G3)
6 (75) N (%): TEAE: Constipation [2] | TEAE: Nausea [2]
50%: TEAE: Vomiting (5:2 cohort, 300 mg)
0 n (%): TEAE: Proteinuria (All 4:3 Patients (n = 20), G1) | TEAE: Back pain (All 4:3 Patients (n = 20), G2) | TEAE: Diarrhea (All 4:3 Patients (n = 20), G2) | TEAE: Dyspnea (All 4:3 Patients (n = 20), G2) | TEAE: ECG QT prolonged (All 4:3 Patients (n = 20), G2) | TEAE: Headache (All 4:3 Patients (n = 20), G2) | TEAE: Nasal congestion (All 4:3 Patients (n = 20), G2) | TEAE: Pyrexia (All 4:3 Patients (n = 20), G2) | TEAE: Cough (All 4:3 Patients (n = 20), G3) | TEAE: Decreased appetite (All 4:3 Patients (n = 20), G3) | TEAE: Diarrhea (All 4:3 Patients (n = 20), G3) | TEAE: Dyspnea (All 4:3 Patients (n = 20), G3) | TEAE: Headache (All 4:3 Patients (n = 20), G3) | TEAE: Hypokalaemia (All 4:3 Patients (n = 20), G3) | TEAE: Nasal congestion (All 4:3 Patients (n = 20), G3) | TEAE: Nausea (All 4:3 Patients (n = 20), G3) | TEAE: Platelet count decreased (All 4:3 Patients (n = 20), G3) | TEAE: Proteinuria (All 4:3 Patients (n = 20), G3) | TEAE: Vomiting (All 4:3 Patients (n = 20), G3) | TEAE: Weight decreased (All 4:3 Patients (n = 20), G3)
7 (35) n (%): TEAE: Decreased appetite [1]
6 (30) n (%): TEAE: Platelet count decreased [1] | TEAE: Vomiting [1]
2 (10) n (%): TEAE: Weight decreased (All 4:3 Patients (n = 20), G1) | TEAE: Anemia (All 4:3 Patients (n = 20), G2) | TEAE: Fatigue (All 4:3 Patients (n = 20), G2) | TEAE: Hypokalaemia (All 4:3 Patients (n = 20), G2) | TEAE: Muscular weakness (All 4:3 Patients (n = 20), G2) | TEAE: Platelet count decreased (All 4:3 Patients (n = 20), G2)
67%: TEAE: Fatigue (5:2 cohort, 300 mg) | TEAE: decreased platelet count (5:2 cohort, 300 mg)
